Values quoted from earlier work in publication PMC4402028 (Journal of Clinical Pharmacology, 2015).

Tested on: MRP2
Conditions: read-out: Ki for MRP2; cited from earlier work

SMILES: CCCN(CCC)S(=O)(=O)c1ccc(C(=O)O)cc1 [probenecid]
- Ki: 44.6 µM
